According to paper PMC8427973, “Regulation of the HTRA2 Protease Activity by an Inhibitory Antibody-Derived Peptide Ligand and the Influence on HTRA2-Specific Protein Interaction Networks in Retinal Tissues” (Biomedicines, 2021):

Tested on: recombinant 6xHis-tag HTRA2 and its protein interaction partners in homogenized porcine retina
Assay: Co-immunoprecipitation (Co-IP) of HTRA2 protein interaction partners, quantitative LC-MS/MS (iBAQ, volcano plot vs CTRL beads)
Set-up: species or system house swine (Sus scrofa)
Conditions: 2 µg HTRA2 + 10 µg compound, n = 3, vs CTRL beads
Experimental: The retina extraction and homogenization were performed as already described in previous publications. The use of animal by-products of house swine for scientific research purposes was approved by the Kreisverwaltung Mainz-Bingen in Germany (Identification Code: DE 07 315 0006 21, approved on 13 January 2014). In brief, retinal tissues were extracted from freshly removed porcine eye bulbs (house swine, Sus scrofa domestica Linnaeus, n = 30) provided by the local slaughterhouses (Landmetzgerei Harth, Stadecken-Elsheim, Germany). Afterwards, the retinal tissues were homogenized in 2 mL screw cap microtubes filled with 1.4/2.8 mm ceramic beads and 1 mL Tissue Protein Extraction Reagent (T-PER, Thermo Fisher Scientific, Rockford, IL, USA) using a Percellys® 24 homogenizer (VWR International GmbH, Darmstadt, Germany). The homogenized retinal samples were then centrifuged at 14,000× g for 15 min at 4 °C. The protein-containing supernatant was exchanged in a 100 µL phosphate-buffered saline (PBS) using a 3 kDa Amicon® filtration unit (Millipore, Billerica, MA, USA) and, prior to this, was extensively washed in order to completely remove traces of the T-PER buffer. Afterwards, the samples were pooled and the protein concentration was determined using a Pierce Bicinchoninic Acid (BCA) Protein Assay Kit (Thermo Fisher Scientific, Rockford, IL, USA) according to the manufacturer’s protocol, which provided 5 mg aliquots for further analysis.
The recombinant protein HTRA2 with a C-terminal 6xHis-tag motif (Novoprotein Scientific INC., Summit, NJ, USA) and 40 μL HisPurTM Ni-NTA magnetic beads (Thermo Fisher Scientific, Rockford, IL, USA) were spiked into 5 mg homogenized porcine retina. The experiment comprised of four groups: control homogenate (CTRL group), homogenate with 2 μg recombinant HTRA2 (HTRA2 group), homogenate with 2 μg recombinant HTRA2 and 10 μg UCF-101 (UCF-101 group), and homogenate with 2 μg recombinant HTRA2 and 10 μg synthetic CDR peptide (CDR group). The Co-IP of the recombinant HTRA2 and the enrichment of the respective interaction partners was performed with three independent biological replicates for each group (CTRL, HTRA2, UCF-101, and CDR group). After incubation at 4 °C overnight, the 6xHis-tagged protein HTRA2 with the bounded protein interaction partners (co-immunoprecipitation) was isolated with the previously added HisPurTM Ni-NTA magnetic beads (Thermo Fisher Scientific, Rockford, IL, USA) using a magnetic stand. Each bead group was washed twice with 400 μL PBS and the bounded HTRA2 including the protein interaction partners were eluted by pH shift. The protein concentration of each eluate fraction was determined as described above. Afterwards, 50 μg of each eluate fraction was evaporated using a speed vacuum concentrator (SpeedVac) (Eppendorf, Hamburg, Germany) for 45 min at 30 °C and was stored afterwards at −20 °C.
The protein eluate fractions of each group (50 μg; n = 3 biological replicates per group) were separated by 1D SDS PAGE on 10-well NuPAGE® 12% Bis-Tris gels using NuPAGE™ MOPS SDS Running Buffer 20X (Thermo Fisher Scientific, Rockford, IL, USA). The 1D SDS PAGE was performed with the XCell SureLock^TM Mini-Cell Electrophoresis System (Thermo Fisher Scientific, Rockford, IL, USA) under denatured and reduced conditions, as already described in previous publications. The protein separation was performed for 2 h at 4 °C using 150 V, and then the gels were stained with the Novex Colloidal Blue Staining Kit (Thermo Fisher Scientific, Rockford, IL, USA) according to the manufacturer’s protocol. The next day, the gels were destained overnight and scanned using a DGP-9042 scanner (Brother Industries, Nagoya, Japan) at 600 dpi. In-gel trypsin digestion was performed as already described in previous publications. In brief, each protein lane was divided into 17 slices and was subsequently cut into small pieces. […]

## O=C1C(=Cc2ccc(-c3ccccc3[N+](=O)[O-])o2)C(=O)N(c2ccccc2)C(=S)N1c1ccccc1 [UCF-101, reference compound]
HTRA2 alone: -
  FGF2 (Fibroblast growth factor 2) as significant interaction partner of HTRA2: √ (Proteins fulfilled filtering criteria (p < 0.01; log2 fold change > 1.5))
  FTH1 (Ferritin heavy chain) as significant interaction partner of HTRA2: √ (Proteins fulfilled filtering criteria (p < 0.01; log2 fold change > 1.5))
  GTF2F2 (General transcription factor IIF subunit 2) as significant interaction partner of HTRA2: √ (Proteins fulfilled filtering criteria (p < 0.01; log2 fold change > 1.5))
  NAPG (Gamma-soluble NSF attachment protein) as significant interaction partner of HTRA2: - (Proteins failed to fulfill the filtering criteria (p > 0.01; log2 fold change < 1.5))
  PDZD11 (PDZ domain-containing protein 11) as significant interaction partner of HTRA2: √ (Proteins fulfilled filtering criteria (p < 0.01; log2 fold change > 1.5))
  PGRMC1 (Membrane-associated progesterone receptor component 1) as significant interaction partner of HTRA2: √ (Proteins fulfilled filtering criteria (p < 0.01; log2 fold change > 1.5))
  PLRG1 (Pleiotropic regulator 1) as significant interaction partner of HTRA2: - (Proteins failed to fulfill the filtering criteria (p > 0.01; log2 fold change < 1.5))
  POLR2E (DNA-directed RNA polymerases I, II, and III subunit RPABC1) as significant interaction partner of HTRA2: - (Proteins failed to fulfill the filtering criteria (p > 0.01; log2 fold change < 1.5))
  PPA1 (Inorganic pyrophosphatase) as significant interaction partner of HTRA2: √ (Proteins fulfilled filtering criteria (p < 0.01; log2 fold change > 1.5))
  SFRP1 (Secreted frizzled-related protein 1) as significant interaction partner of HTRA2: - (Proteins failed to fulfill the filtering criteria (p > 0.01; log2 fold change < 1.5))
  TUBA1C (Tubulin alpha-1C chain) as significant interaction partner of HTRA2: - (Proteins failed to fulfill the filtering criteria (p > 0.01; log2 fold change < 1.5))
  UBE2N (Ubiquitin-conjugating enzyme E2 N) as significant interaction partner of HTRA2: √ (Proteins fulfilled filtering criteria (p < 0.01; log2 fold change > 1.5))
HTRA2 alone: n.d.
  CDC42 (Cell division control protein 42 homolog) as significant interaction partner of HTRA2: √ (Proteins fulfilled filtering criteria (p < 0.01; log2 fold change > 1.5))
  COPE (Coatomer subunit epsilon) as significant interaction partner of HTRA2: √ (Proteins fulfilled filtering criteria (p < 0.01; log2 fold change > 1.5))
  MRPL2 (39S ribosomal protein L2, mitochondrial) as significant interaction partner of HTRA2: - (Proteins failed to fulfill the filtering criteria (p > 0.01; log2 fold change < 1.5))
  SNX3 (Sorting nexin-3) as significant interaction partner of HTRA2: √ (Proteins fulfilled filtering criteria (p < 0.01; log2 fold change > 1.5))
  SOWAHA (Ankyrin repeat domain-containing protein SOWAHA) as significant interaction partner of HTRA2: - (Proteins failed to fulfill the filtering criteria (p > 0.01; log2 fold change < 1.5))
  TIMM13 (Mitochondrial import inner membrane translocase subunit Tim13) as significant interaction partner of HTRA2: √ (Proteins fulfilled filtering criteria (p < 0.01; log2 fold change > 1.5))
  TUBB8 (Tubulin beta-8 chain) as significant interaction partner of HTRA2: - (Proteins failed to fulfill the filtering criteria (p > 0.01; log2 fold change < 1.5))
HTRA2 alone: √
  ANK2 (Ankyrin-2) as significant interaction partner of HTRA2: - (Proteins failed to fulfill the filtering criteria (p > 0.01; log2 fold change < 1.5))
  AP2A1 (AP-2 complex subunit alpha-1) as significant interaction partner of HTRA2: - (Proteins failed to fulfill the filtering criteria (p > 0.01; log2 fold change < 1.5))
  AP3D1 (AP-3 complex subunit delta-1) as significant interaction partner of HTRA2: - (Proteins failed to fulfill the filtering criteria (p > 0.01; log2 fold change < 1.5))
  AUH (Methylglutaconyl-CoA hydratase, mitochondrial) as significant interaction partner of HTRA2: - (Proteins failed to fulfill the filtering criteria (p > 0.01; log2 fold change < 1.5))
  CS (Citrate synthase, mitochondrial) as significant interaction partner of HTRA2: - (Proteins failed to fulfill the filtering criteria (p > 0.01; log2 fold change < 1.5))
  CSTB (Cystatin-B) as significant interaction partner of HTRA2: - (Proteins failed to fulfill the filtering criteria (p > 0.01; log2 fold change < 1.5))
  DNAJA3 (DnaJ homolog subfamily A member 3, mitochondrial) as significant interaction partner of HTRA2: - (Proteins failed to fulfill the filtering criteria (p > 0.01; log2 fold change < 1.5))
  DTD1 (D-aminoacyl-tRNA deacylase 1) as significant interaction partner of HTRA2: - (Proteins failed to fulfill the filtering criteria (p > 0.01; log2 fold change < 1.5))
  EIF2S3 (Eukaryotic translation initiation factor 2 subunit 3) as significant interaction partner of HTRA2: - (Proteins failed to fulfill the filtering criteria (p > 0.01; log2 fold change < 1.5))
  FAM30A (Putative uncharacterized protein FAM30A) as significant interaction partner of HTRA2: - (Proteins failed to fulfill the filtering criteria (p > 0.01; log2 fold change < 1.5))
  FLNA (Filamin-A) as significant interaction partner of HTRA2: - (Proteins failed to fulfill the filtering criteria (p > 0.01; log2 fold change < 1.5))
  GDI1 (Rab GDP dissociation inhibitor alpha) as significant interaction partner of HTRA2: - (Proteins failed to fulfill the filtering criteria (p > 0.01; log2 fold change < 1.5))
  GLO1 (Lactoylglutathione lyase) as significant interaction partner of HTRA2: - (Proteins failed to fulfill the filtering criteria (p > 0.01; log2 fold change < 1.5))
  GNL1 (Guanine nucleotide-binding protein-like 1) as significant interaction partner of HTRA2: - (Proteins failed to fulfill the filtering criteria (p > 0.01; log2 fold change < 1.5))
  HAGH (Hydroxyacylglutathione hydrolase, mitochondrial) as significant interaction partner of HTRA2: - (Proteins failed to fulfill the filtering criteria (p > 0.01; log2 fold change < 1.5))
  HTRA2 (Serine protease HTRA2, mitochondrial; target protein) enriched: √ (Proteins fulfilled filtering criteria (p < 0.01; log2 fold change > 1.5))
  HYOU1 (Hypoxia up-regulated protein 1) as significant interaction partner of HTRA2: - (Proteins failed to fulfill the filtering criteria (p > 0.01; log2 fold change < 1.5))
  ME2 (NAD-dependent malic enzyme, mitochondrial) as significant interaction partner of HTRA2: - (Proteins failed to fulfill the filtering criteria (p > 0.01; log2 fold change < 1.5))
  NCKAP1 (Nck-associated protein 1) as significant interaction partner of HTRA2: - (Proteins failed to fulfill the filtering criteria (p > 0.01; log2 fold change < 1.5))
  PACS1 (Phosphofurin acidic cluster sorting protein 1) as significant interaction partner of HTRA2: - (Proteins failed to fulfill the filtering criteria (p > 0.01; log2 fold change < 1.5))
  POTEE (POTE ankyrin domain family member E) as significant interaction partner of HTRA2: - (Proteins failed to fulfill the filtering criteria (p > 0.01; log2 fold change < 1.5))
  PTGES3 (Prostaglandin E synthase 3) as significant interaction partner of HTRA2: √ (Proteins fulfilled filtering criteria (p < 0.01; log2 fold change > 1.5))
  SHMT2 (Serine hydroxymethyltransferase, mitochondrial) as significant interaction partner of HTRA2: - (Proteins failed to fulfill the filtering criteria (p > 0.01; log2 fold change < 1.5))
  SPTBN1 (Spectrin beta chain, non-erythrocytic 1) as significant interaction partner of HTRA2: - (Proteins failed to fulfill the filtering criteria (p > 0.01; log2 fold change < 1.5))
  UBE2V1 (Ubiquitin-conjugating enzyme E2 variant 1) as significant interaction partner of HTRA2: √ (Proteins fulfilled filtering criteria (p < 0.01; log2 fold change > 1.5))
